The values that follow come from ChEMBL document CHEMBL3108714, “Bisphenol A binds to Ras proteins and competes with guanine nucleotide exchange: implications for GTPase-selective antagonists” (J Med Chem, 2013).

SMILES strings stand for the structures. Calls of active or inactive are those of the source. The calls are words filed in the database; no cut-off is given here.

Test [1] addresses T1, GTP-binding protein Rheb (Homo sapiens, UniProt Q15382). As to the kind of experiment: Inhibition of RHEB in human HeLa cells assessed as decrease in phospho-S6 protein level at 100 uM after 4 hrs by Western blotting analysis. The format is cell-based. Background: In western blotting, separated proteins are transferred to a membrane and probed.
In another test the target is GTPase KRas (Homo sapiens, UniProt P01116). Nature of the test: Binding affinity to human K-RAS by NMR analysis.
For test [2], the system named is HeLa. As to the kind of experiment: Induction of apoptosis in human HeLa cells assessed as increase in cellular degeneration at 25 to 250 uM after 4 hrs by MTT assay. The test is classed as functional, cell-based. (In general: Tetrazolium dyes change colour on reduction, which living cells bring about.)
For test [3], the target named is T1, GTP-binding protein Rheb. As to the kind of experiment: Binding affinity to full-length Rheb (unknown origin) by NMR spectroscopic analysis.
The subject of test [4] is HeLa. Nature of the test: Induction of apoptosis in human HeLa cells assessed as increase in cellular degeneration at >100 uM after 24 hrs by DAPI-staining-based microscopic analysis. The format is functional, cell-based.

T1 sequence (Q15382 whole entry): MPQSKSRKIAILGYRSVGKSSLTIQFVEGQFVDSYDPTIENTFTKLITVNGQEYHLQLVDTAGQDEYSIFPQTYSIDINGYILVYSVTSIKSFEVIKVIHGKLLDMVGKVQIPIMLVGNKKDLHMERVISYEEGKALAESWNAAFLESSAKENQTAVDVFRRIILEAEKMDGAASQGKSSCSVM

Take `Oc1ccc(-c2ccc(O)cc2)cc1`: at GTP-binding protein Rheb [1], the inhibition result was “Active”. For the same molecule, on GTPase KRas, the inhibition entry is “inactive”. In addition, the result in the test with HeLa [2] was Active. In addition, the dissociation constant (Kd) (in general, a measure of binding affinity in units of concentration) on GTP-binding protein Rheb [3] is 1500 µM.

Turning to `CC(C)(c1ccc(O)cc1)c1ccc(O)cc1` [BISPHENOL A], the inhibition entry on GTP-binding protein Rheb [1] was “inactive”. The Kd came out at 600 µM on GTPase KRas and 1800 µM at GTP-binding protein Rheb [3]. In addition, in the test on HeLa [4], the result was Active.
